Test results taken from patent publication US9278958B2, “Anti-cancer compounds” (KATHOLIEKE UNIVERSITEIT LEUVEN, priority 2012, dated 2016).
Where two headings read alike, the source gives them in different places.

What was measured:
MT-2 cells = experiment: Cytostatic assay, MT-2; format: cell-based; details: Homo sapiens, MT2; Table 2
Experimental: (§1) To each well of a 96-well microtiter plate were added 5-7.5×10^4 cells and a given amount of the test compound. The cells were allowed to proliferate for 48 h to 96 h (depending on the nature of the cell line) at 37° C. in a humidified CO2-controlled atmosphere. At the end of the incubation period, the cells were counted in a Coulter Counter (Coulter Electronics Ltd, Harpenden Herts, United Kingdom).

C8166 cells = experiment: Cytostatic assay, C8166; format: cell-based; details: Homo sapiens, Table 2
Experimental: as §1

[1] = test system: LNCaP (UZ) prostate cancer cells; experiment: Cytostatic assay, LNCaP (UZ); format: cell-based; details: Homo sapiens, Table 4
Experimental: as §1

[2] = test system: HT29 colorectal carcinoma cells; experiment: Cytostatic assay, HT29; format: cell-based; details: Homo sapiens, HT-29; Table 3
Experimental: as §1

[3] = test system: HL60, human leukemia cells; experiment: Cytostatic assay, HL-60; format: cell-based; details: Table 2
Experimental: as §1

[4] = test system: PC3 (rega) prostate cancer cells; experiment: Cytostatic assay, PC3 (rega); format: cell-based; details: Table 4
Experimental: as §1

[5] = test system: U937, human monocytic cells; experiment: Cytostatic assay, U937; format: cell-based; details: U-937, Table 2
Experimental: as §1

HUT-78 cells = experiment: Cytostatic assay, HUT-78; format: cell-based; details: Homo sapiens, HuT78; Table 2
Experimental: as §1

[6] = test system: PNT1A (UZ) prostate cells; experiment: Cytostatic assay, PNT1A (UZ); format: cell-based; details: Homo sapiens, Table 4
Experimental: as §1

L1210 cells = experiment: Cytostatic assay, L1210; format: cell-based; details: Mus musculus, Table 2
Experimental: as §1

[7] = test system: FM3A mammary carcinoma cells; experiment: Cytostatic assay, FM3A; format: cell-based, murine; details: Mus musculus, Table 3
Experimental: as §1

Huh-7 hepatoma cells = experiment: Cytostatic assay, Huh-7; format: cell-based; details: Homo sapiens, Table 4
Experimental: as §1

Sup T1 cells = experiment: Cytostatic assay, Sup T1; format: cell-based; details: Homo sapiens, Table 2, read-out: Cytostatic activity (μM) Sup T 1
Experimental: as §1

[8] = test system: 293T embryonic kidney cells; experiment: Cytostatic assay, 293T; format: cell-based; details: Homo sapiens, HEK-293T; Table 3
Experimental: as §1

[9] = test system: PC-3 (UZ) prostate cancer cells; experiment: Cytostatic assay, PC-3 (UZ); format: cell-based; details: Table 4
Experimental: as §1

[10] = test system: 22Rv1 (UZ) prostate cancer cells; experiment: Cytostatic assay, 22Rv1 (UZ); format: cell-based; details: Homo sapiens, Table 4
Experimental: as §1

[11] = test system: HEL embryonic lung fibroblast cells; experiment: Cytostatic assay, HEL; format: cell-based; details: Homo sapiens, Table 3
Experimental: as §1

MT-4 cells = experiment: Cytostatic assay, MT-4; format: cell-based; details: Homo sapiens, MT4; Table 2
Experimental: as §1

CEM cells = experiment: Cytostatic assay, CEM; format: cell-based; details: Homo sapiens, CCRF-CEM
Experimental: as §1

[12] = test system: Caki-1 kidney carcinoma cells; experiment: Cytostatic assay, Caki-1; format: cell-based; details: Homo sapiens, Table 3
Experimental: as §1

[13] = test system: OST TK- osteosarcoma cells; experiment: Cytostatic assay, OST TK-; format: cell-based; details: Homo sapiens; Table 3
Experimental: as §1

[14] = test system: THP-1, human monocytic cells; experiment: Cytostatic assay, THP-1; format: cell-based; details: Table 2
Experimental: as §1

[15] = test system: BAEC aortic endothelial cells; experiment: Cytostatic assay, BAEC; format: cell-based, bovine; details: Bos taurus, Table 3
Experimental: as §1

PLC/PRF/5 hepatoma cells = experiment: Cytostatic assay, PLC/PRF/5; format: cell-based; details: Homo sapiens, Table 4
Experimental: as §1

HepG2C3A hepatoma cells = experiment: Cytostatic assay, HepG2C3A; format: cell-based; details: Homo sapiens, HepG2/C3A; Table 4
Experimental: as §1

BPH-1 (UZ) = experiment: Cytostatic assay, BPH-1 (UZ); format: cell-based; details: Homo sapiens, Table 4
Experimental: as §1

[16] = test system: Raji, human B-lymphoma cells; experiment: Cytostatic assay, Raji; format: cell-based; details: Table 2
Experimental: as §1

Molt4/C8 cells = experiment: Cytostatic assay, Molt4/C8; format: cell-based; details: Table 2
Experimental: as §1

[17] = test system: HeLa cervix carcinoma cells; experiment: Cytostatic assay, HeLa; format: cell-based, human; details: Homo sapiens; Table 3; read-out: Cytostatic activity (μM) Hela
Experimental: as §1

[18] = test system: MCF-7 mammary carcinoma cells; experiment: Cytostatic assay, MCF-7; format: cell-based; details: Homo sapiens, MCF7; Table 3
Experimental: as §1

[19] = test system: Caki-2 kidney carcinoma cells; experiment: Cytostatic assay, Caki-2; format: cell-based; details: Homo sapiens, Table 3
Experimental: as §1

[20] = test system: DU145 (UZ) prostate cancer cells; experiment: Cytostatic assay, DU145 (UZ); format: cell-based; details: Homo sapiens, DU-145; Table 4
Experimental: as §1

U87 glioma cells = experiment: Cytostatic assay, U87; format: cell-based; details: Homo sapiens, U-87 MG; Table 3
Experimental: as §1

[21] = test system: broad variety of tumor cell lines; experiment: Cytostatic assays, summary over the panel of cell lines (Tables 2-4); format: cell-based; details: range over the cell lines of Tables 2-4; read-out: IC50 range (antiproliferative activity)
Experimental: as §1

[22] = Table 1a, read-out: IC50 μM (CEM)
[23] = Table 2, read-out: Cytostatic activity (μM) CEM

IC50 (MT-2 cells)	IC50 (C8166 cells)	IC50 [1]	IC50 [2]	IC50 [3]	IC50 [4]	IC50 [5]	IC50 (HUT-78 cells)	IC50 [6]	IC50 (L1210 cells)	IC50 [7]	IC50 (Huh-7 hepatoma cells)	IC50 (Sup T1 cells)	IC50 [9]	IC50 [10]	IC50 (CEM cells; [22])	IC50 (CEM cells; [23])	Structure (SMILES)	IC50 [8]	IC50 [11]	IC50 (MT-4 cells)	also measured
103 ± 52 µM	149 ± 14 µM	9.7 ± 5.1 µM	43 ± 1.4 µM	16 ± 3.5 µM	26 ± 8.5 µM	82 ± 7.1 µM	152 ± 44 µM	58 ± 13 µM	204 ± 85 µM	275 ± 206 µM	59 ± 17 µM	45 ± 31 µM	28 ± 4.9 µM	42 ± 7.6 µM	55 µM	55 µM	COC(=O)c1cc(-c2ccccc2OC)sc1N [TR581, 2-Amino-5-(2-methoxy-phenyl)-thiophene-3-carboxylic acid methyl ester]	72 ± 4.9 µM	24 ± 2.1 µM	36 ± 15 µM	IC50 [12]: 39 ± 2.1 µM; IC50 [13]: 45 ± 4.2 µM; IC50 [14]: 69 ± 13 µM; IC50 [15]: 38 ± 2.1 µM; IC50 (PLC/PRF/5 hepatoma cells): 36 ± 4.2 µM; IC50 (HepG2C3A hepatoma cells): 38 ± 27 µM; IC50 (BPH-1 (UZ)): 50 ± 5.7 µM; IC50 [16]: 59 ± 11 µM; IC50 (Molt4/C8 cells): 39 ± 8 µM; IC50 [17]: 41 ± 4.9 µM; IC50 [18]: 29 ± 20 µM; IC50 [19]: 28 ± 18 µM; IC50 [20]: 35 ± 6.4 µM; IC50 (U87 glioma cells): 42 ± 5.7 µM
≥ 161 µM	> 200 µM	4.8 ± 3.4 µM	> 100 µM	≥ 135 µM	69 ± 21 µM	> 200 µM	> 200 µM	> 100 µM	230 ± 65 µM	320 ± 14 µM	> 100 µM	> 200 µM	> 100 µM	34 ± 26 µM	233 µM	233 ± 29 µM	COc1ccc(-c2cc(C#N)c(N)s2)cc1 [TR582, 2-Amino-5-(4-methoxy-phenyl)-thiophene-3-carbonitrile]	> 100 µM	33 ± 0.71 µM	76 ± 35 µM	IC50 [21]: 24 to 320 µM; IC50 [12]: 19 ± 18 µM; IC50 [13]: 134 ± 69 µM; IC50 [14]: 124 ± 25 µM; IC50 [15]: > 100 µM; IC50 (PLC/PRF/5 hepatoma cells): 49 ± 3.5 µM; IC50 (HepG2C3A hepatoma cells): ≥ 100 µM; IC50 (BPH-1 (UZ)): > 100 µM; IC50 [16]: > 100 µM; IC50 (Molt4/C8 cells): 275 ± 89 µM; IC50 [17]: 168 ± 15 µM; IC50 [18]: 117 ± 58 µM; IC50 [19]: ≥ 200 µM; IC50 [20]: > 100 µM; IC50 (U87 glioma cells): > 100 µM
6.8 ± 3.7 µM	57 ± 56 µM	0.83 ± 0.35 µM	34 ± 6.4 µM	1.9 ± 0.42 µM	1.8 ± 2 µM	17 ± 2.8 µM	17 ± 8.1 µM	38 ± 14 µM	14 ± 4 µM	34 ± 23 µM	> 100 µM	79 ± 42 µM	4.2 ± 0.14 µM	17 ± 8.1 µM	16 µM	16 ± 17 µM	COc1ccc(CCc2cc(C#N)c(N)s2)cc1 [TR586, 2-Amino-5-[2-(4-methoxy-phenyl)-ethyl]-thiophene-3-carbonitrile]	28 ± 3.5 µM	> 100 µM	74 ± 37 µM	IC50 [12]: 1.9 ± 0.42 µM; IC50 [13]: 27 ± 18 µM; IC50 [14]: 4.3 ± 0.6 µM; IC50 [15]: 38 ± 2.1 µM; IC50 (PLC/PRF/5 hepatoma cells): 37 ± 0.71 µM; IC50 (HepG2C3A hepatoma cells): 46 ± 13 µM; IC50 (BPH-1 (UZ)): 59 ± 18 µM; IC50 [16]: 36 ± 21 µM; IC50 (Molt4/C8 cells): 1.4 ± 0.8 µM; IC50 [17]: 21 ± 9.9 µM; IC50 [18]: 114 ± 62 µM; IC50 [19]: 28 ± 27 µM; IC50 [20]: 8.3 ± 2.5 µM; IC50 (U87 glioma cells): > 100 µM
